Laboratory results reported in the NIST ThermoML archive (doi:10.1021/acs.jced.9b00313).
± gives the expanded uncertainty stated by the source.

How the values were obtained:
[1] = xn = mol fraction of the nth substance listed; conditions: 86.5 kPa, Liquid; for viscosity: Capillary tube (Ostwald / Ubbelohde) method; for speed of sound: Frequency=3 MHz, Single path-length method; for mass density: Vibrating tube method
[2] = refractive index (Na D-line) (dimensionless); xn = mol fraction of the nth substance listed; conditions: 86.5 kPa, Liquid, Standard Abbe refractometry

| Structure (SMILES) | viscosity ([1]; 288.15 K, x1 = 0.125) | viscosity ([1]; 288.15 K, x1 = 0.167) | speed of sound ([1]; 288.15 K, x1 = 0.125) | speed of sound ([1]; 288.15 K, x1 = 0.167) | mass density ([1]; 288.15 K, x1 = 0.125) | mass density ([1]; 288.15 K, x1 = 0.167) | viscosity ([1]; 293.15 K, x1 = 0.125) | viscosity ([1]; 293.15 K, x1 = 0.167) | speed of sound ([1]; 293.15 K, x1 = 0.125) | speed of sound ([1]; 293.15 K, x1 = 0.167) | mass density ([1]; 293.15 K, x1 = 0.125) | mass density ([1]; 293.15 K, x1 = 0.167) | viscosity ([1]; 298.15 K, x1 = 0.125) | viscosity ([1]; 298.15 K, x1 = 0.167) | speed of sound ([1]; 298.15 K, x1 = 0.125) | speed of sound ([1]; 298.15 K, x1 = 0.167) | mass density ([1]; 298.15 K, x1 = 0.125) | mass density ([1]; 298.15 K, x1 = 0.167) | viscosity ([1]; 303.15 K, x1 = 0.125) | viscosity ([1]; 303.15 K, x1 = 0.167) | other results |
| --- | --- | --- | --- | --- | --- | --- | --- | --- | --- | --- | --- | --- | --- | --- | --- | --- | --- | --- | --- | --- | --- |
| C[N+](C)(C)CCO.[Cl-] [choline chloride] + NCCO | 50.12 ± 1.2 mPa·s | 59.66 ± 1.4 mPa·s | 1989.5 ± 2.2 m/s | 2006.1 ± 2.2 m/s | 1090.06 ± 3.1 kg/m3 | 1091.28 ± 3.1 kg/m3 | 42.39 ± 1.1 mPa·s | 52.01 ± 1.4 mPa·s | 1977.8 ± 2.2 m/s | 1994.5 ± 2.2 m/s | 1086.89 ± 3.1 kg/m3 | 1088.11 ± 3.1 kg/m3 | 35.76 ± 0.89 mPa·s | 37.69 ± 0.95 mPa·s | 1965.3 ± 2.2 m/s | 1982 ± 2.2 m/s | 1083.96 ± 3.1 kg/m3 | 1085.18 ± 3.1 kg/m3 | 30.23 ± 0.77 mPa·s | 38.98 ± 0.82 mPa·s | speed of sound ([1]; 303.15 K, x1 = 0.125): 1953 ± 2.2 m/s; speed of sound ([1]; 303.15 K, x1 = 0.167): 1970.7 ± 2.2 m/s; mass density ([1]; 303.15 K, x1 = 0.125): 1081 ± 3.1 kg/m3; mass density ([1]; 303.15 K, x1 = 0.167): 1082.22 ± 3.1 kg/m3; refractive index ([2]; 288.15 K, x1 = 0.125): 1.4905 ± 0.002; refractive index ([2]; 288.15 K, x1 = 0.167): 1.4934 ± 0.002; refractive index ([2]; 293.15 K, x1 = 0.125): 1.4884 ± 0.002; refractive index ([2]; 293.15 K, x1 = 0.167): 1.4913 ± 0.002; refractive index ([2]; 298.15 K, x1 = 0.125): 1.4862 ± 0.002; refractive index ([2]; 298.15 K, x1 = 0.167): 1.4891 ± 0.002; refractive index ([2]; 303.15 K, x1 = 0.125): 1.4844 ± 0.002; refractive index ([2]; 303.15 K, x1 = 0.167): 1.4873 ± 0.002 |
| C[N+](C)(C)CCO.[Cl-] [choline chloride] + OCCO | 32.07 ± 0.9 mPa·s | 43.39 ± 1.1 mPa·s | 1919.5 ± 2 m/s | 1931.8 ± 2 m/s | 1113.73 ± 3.1 kg/m3 | 1115.91 ± 3.1 kg/m3 | 24.34 ± 0.76 mPa·s | 35.75 ± 0.93 mPa·s | 1907.5 ± 2 m/s | 1920.1 ± 2 m/s | 1111.87 ± 3.1 kg/m3 | 1113.09 ± 3.1 kg/m3 | 17.71 ± 0.61 mPa·s | 28.86 ± 0.79 mPa·s | 1895.2 ± 2 m/s | 1908.6 ± 2 m/s | 1109.07 ± 3.1 kg/m3 | 1110.23 ± 3.1 kg/m3 | 12.19 ± 0.51 mPa·s | 22.72 ± 0.68 mPa·s | speed of sound ([1]; 303.15 K, x1 = 0.125): 1883.5 ± 2 m/s; speed of sound ([1]; 303.15 K, x1 = 0.167): 1897.1 ± 2 m/s; mass density ([1]; 303.15 K, x1 = 0.125): 1106.16 ± 3.1 kg/m3; mass density ([1]; 303.15 K, x1 = 0.167): 1107.34 ± 3.1 kg/m3; refractive index ([2]; 288.15 K, x1 = 0.125): 1.467 ± 0.002; refractive index ([2]; 288.15 K, x1 = 0.167): 1.4732 ± 0.002; refractive index ([2]; 293.15 K, x1 = 0.125): 1.4649 ± 0.002; refractive index ([2]; 293.15 K, x1 = 0.167): 1.4711 ± 0.002; refractive index ([2]; 298.15 K, x1 = 0.125): 1.4628 ± 0.002; refractive index ([2]; 298.15 K, x1 = 0.167): 1.4687 ± 0.002; refractive index ([2]; 303.15 K, x1 = 0.125): 1.461 ± 0.002; refractive index ([2]; 303.15 K, x1 = 0.167): 1.4668 ± 0.002 |
| C[N+](C)(C)CCO.[Cl-] [choline chloride] + OCCOCCO | 110.12 ± 2.7 mPa·s | 125.8 ± 3.2 mPa·s | 1752.1 ± 2 m/s | 1764.7 ± 2 m/s | 1115.24 ± 3.1 kg/m3 | 1117.43 ± 3.1 kg/m3 | 102.39 ± 2.4 mPa·s | 118.16 ± 2.9 mPa·s | 1740.1 ± 2 m/s | 1752.3 ± 2 m/s | 1113.38 ± 3.1 kg/m3 | 1114.61 ± 3.1 kg/m3 | 95.76 ± 2.2 mPa·s | 111.27 ± 2.7 mPa·s | 1728.4 ± 2 m/s | 1740.3 ± 2 m/s | 1110.59 ± 3.1 kg/m3 | 1111.75 ± 3.1 kg/m3 | 90.23 ± 2 mPa·s | 105.11 ± 2.5 mPa·s | speed of sound ([1]; 303.15 K, x1 = 0.125): 1716.3 ± 2 m/s; speed of sound ([1]; 303.15 K, x1 = 0.167): 1728.4 ± 2 m/s; mass density ([1]; 303.15 K, x1 = 0.125): 1107.68 ± 3.1 kg/m3; mass density ([1]; 303.15 K, x1 = 0.167): 1108.86 ± 3.1 kg/m3; refractive index ([2]; 288.15 K, x1 = 0.125): 1.4797 ± 0.002; refractive index ([2]; 288.15 K, x1 = 0.167): 1.4857 ± 0.002; refractive index ([2]; 293.15 K, x1 = 0.125): 1.4776 ± 0.002; refractive index ([2]; 293.15 K, x1 = 0.167): 1.4836 ± 0.002; refractive index ([2]; 298.15 K, x1 = 0.125): 1.4754 ± 0.002; refractive index ([2]; 298.15 K, x1 = 0.167): 1.4814 ± 0.002; refractive index ([2]; 303.15 K, x1 = 0.125): 1.4735 ± 0.002; refractive index ([2]; 303.15 K, x1 = 0.167): 1.4795 ± 0.002 |
